Laboratory results reported in US20230121771A1, “A PHARMACEUTICAL COMBINATION OF AN ARTEMISININ COMPOUND, 5-AMINOLEVULINIC ACID OR METHYL-5-AMINOLEVULINIC ACID AND A CHEMOTHERAPEUTIC AGENT” (JLP Health GmbH, priority 2020, published 2023).
Starred links: 1 amine or outer side, 2 acyl side, 3 side chain; linkers in the order of their positions; H or OH if unused. Positions of bridges follow the written chain, without caps; N, C: chain ends. Non-standard residues stand in square brackets, D forms with d. Residues, ends and D or L forms follow the SMILES beside them. Chains are numbered I, II in the order given. Actinocin(9to1) = Cc1c2oc3c(C)ccc(C(=O)[*:1])c3nc-2c(C(=O)[*:2])c(N)c1=O; NMeV = CN[C@H](C(=O)O)C(C)C; Sar = CNCC(=O)O

Tests used:
[1] = test system: cancer cell lines originating from other tissues; test: 6-day cell survival assay, cancer cell lines originating from other tissues (summary); assay type: cell-based; details: lung, liver, breast, pancreas lines
Protocol: Cell survival assays (FIGS. 12-19) were performed in 96-well plates in technical duplicates. Treatments started 24 hours post cell plating and lasted for 6-days prior to cell viability assessment with the Cell Titer Glo 2.0 Luminescent assay (Promega, G9242).

mouse ESCs [2] = test: Cell survival of artemisinin treated mouse embryonic stem cells (Alamar Blue, 48 h); assay type: cell-based; details: artemisinin combined with acifluorfen or 5-ALA (0.5 mM)
Protocol: For dosage responses, cells were seeded in 96-wells (25.000/ 96-well, in triplicate -where indicated) and subjected to compounds for 48 h. Cell viability was assessed using automated cell counting (high-throughput flow cytometry), Alamar Blue staining (Invitrogen, DAL1100) or CellTiter-Glo Luminescent Assay (Promega, G7570, according to the manufacturer’s protocol) respectively.

mouse ESCs [3] = test: Competitive growth assay of wild-type and knockout sister ESC clones in presence of artemisinin; assay type: cell-based; details: mixed labelled cells, artemisinin exposure, flow cytometry
Protocol: Haploid ESCs harbouring gene traps in nomic introns were seeded at low density in normal ESC growth medium and infected for 12 h with two viruses, one encoding mCherry plus Cre recombinase and the other coding for GFP, both together with puromycin (Invivogen, ant-pr-1). Infected cells were selected (final concentration of puromycin, 1 µg/ml) after 24 h and expanded. Ratios of GFP- to mCherry/Cre-expressing cells in the presence and absence of artemisinin were determined using high-throughput flow cytometry (BD LSRFortessa HTS Cell Analyzer).

[4] = test system: human glioblastoma-like neoplastic organoid model; test: Compound profiling in human glioblastoma-like neoplastic organoid model (p53, NF1, PTEN mutated); assay type: cell-based; details: compound alone
Protocol: Tumor initiation was induced by either oncogene amplification, using a Sleeping Beauty (SB) transposase, or mutation of tumor suppressor genes, using the CRISPR-Cas9 system in day 10 old embryoid bodies (EBs). Plasmids carrying the transposase as well as GFP and the desired oncogenes or expressing Cas9 nuclease were introduced by electroporation. In brief, a mixture of 1 μg DNA and 100 μl nucleofector solution was added to 10 EBs and transferred to a nucleofection cuvette. The Lonza Nucleofector 2b and the A-023 program were used for electroporation/ nucleofection. […] Cerebral tumor organoids were treated with different compounds and the survival and growth of transformed as well as untransformed neurons was monitored. Fluorescence labeling of tumor cells allowed clear distinguishability of transformed cells as compared to non-labeled throughout the experiment using brightfield microscopy, as well as fluorescence imaging. The transformed tumor tissue and untransformed neurons within the same organoid was monitored using fluorescence imaging, as well as brightfield microscopy throughout the experiment. At the endpoint of the treatment (d5 or d7 respectively), the number of GFP-positive cells was assessed by flow cytometry. […] Brightfield and green fluorescence images were taken from the same area. […]

[5] = test system: colorectal cancer (CRC) cells; details: reported in literature; cited from earlier work
[6] = test system: neuroblastoma cells (SHSY5Y), Jurkat and HL-60 cells; test: ROS levels by Dihydroethidium (DHE) staining and flow cytometry in cell lines; assay type: cell-based; details: artemisinin alone; Jurkat and HL-60 cells, 48 h
Protocol: Treated cells were collected, washed with 1x HBSS (without Ca2+ and Mg2+), incubated with 1mM DHE (Dihydroethidium (Hydroethidine), Invitrogen, D11347) in 1x HBSS for 45 min at 37° C., washed twice and counterstained with DAPI or a viability dye (eBioscience™ Fixable Viability Dye eFluor™ 780, 65-0865-18) for 10 min on ice. Cells were then collected, strained and analysed using flow cytometry for DHE in the red fluorescent spectrum (PE channel).

[7] = test system: human cerebral tumor organoids (CNS-PNET); test: Compound profiling in CNS-PNET cerebral tumor organoids (GFP-positive tumor cells); assay type: cell-based; details: very high concentrations, compound alone
Protocol: Tumor initiation was induced by either oncogene amplification, using a Sleeping Beauty (SB) transposase, or mutation of tumor suppressor genes, using the CRISPR-Cas9 system in day 10 old embryoid bodies (EBs). Plasmids carrying the transposase as well as GFP and the desired oncogenes or expressing Cas9 nuclease were introduced by electroporation. In brief, a mixture of 1 μg DNA and 100 μl nucleofector solution was added to 10 EBs and transferred to a nucleofection cuvette. The Lonza Nucleofector 2b and the A-023 program were used for electroporation/ nucleofection. Thereafter, EBs were transferred into 10 cm dishes containing differentiation media containing vitamin A and embedded into Matrigel 24 hours later. Two different types of tumors were initiated {Bian:2018gs}: Central nervous system primitive neuroectodermal tumors (CNS-PNET) were induced by the overexpression of Myc. Glioblastoma-like tumor group 2 (GBM-2) was caused by mutagenesis of the tumor suppressor genes p53, NF1 and PTEN. All plasmids were designed by Shan Bian {Bian, S. et al. Genetically engineered cerebral organoids model brain tumor formation. Nat. Methods 15, 631-639 (2018)}. Cerebral tumor organoids were treated with different compounds and the survival and growth of transformed as well as untransformed neurons was monitored. Fluorescence labeling of tumor cells allowed clear distinguishability of transformed cells as compared to non-labeled throughout the experiment using brightfield microscopy, as well as fluorescence imaging. The transformed tumor tissue and untransformed neurons within the same organoid was monitored using fluorescence imaging, as well as brightfield microscopy throughout the experiment. At the endpoint of the treatment (d5 or d7 respectively), the number of GFP-positive cells was assessed by flow cytometry. Cerebral (tumor) organoids were enzymatically and mechanically dissociated using 1x trypsin, 35-45 min incubation at 37° C., and gentle shaking. […] Single cells in suspension were counterstained with DAPI or a viability dye (eBioscienceTM Fixable Viability Dye eFluorTM 780, 65-0865-18), and analysed using flow cytometry (BD LSRFortessa HTS Cell Analyzer). The amounts of GFP-positive cells were analyzed. […] Brightfield and green fluorescence images were taken from the same area. Additionally, for image analyses, the Celldiscoverer 7 (Zeiss), a fully integrated high-end automated live cell imaging system, was used. Cerebral organoids were fixed in 4% PFA (room temperature, 1 h), incubated with 30% sucrose (4° C., o/n), OCT (Tissue-tek OCT Compound, […], 4583) embedded and 20 μm sections were cryostat cut (-12/-14° C.). […] Fluorescence Mounting Medium (Dako, S302380) was used for mounting the sample slides. […]

Row | Molecule | effect of the chemotherapeutic agent when combined with the double combination ART/DHA/ARS with 5-ALA [1] | also measured
1 | O=c1[nH]cc(F)c(=O)[nH]1 [5-fluorouracil] | enhances | 
2 | O=C(O)c1cc(Oc2ccc(C(F)(F)F)cc2Cl)ccc1[N+](=O)[O-] [acifluorfen] |  | susceptibility to artemisinin (cell survival) (mouse ESCs [2]): increased resistance to artemisinin
3 | C[C@@H]1CC[C@H]2[C@@H](C)C(=O)O[C@@H]3O[C@@]4(C)CC[C@@H]1[C@]32OO4 [artemisinin] |  | relative growth of wild-type (mCherry_Cre) and knockout (GFP) sister cell clones (mouse ESCs [3]): selective loss of wild-type (mCherry_Cre) and strong expansion of knockout cells (GFP); survival of untransformed and transformed cells [4]: little effect on the survival of untransformed cells as well as transformed cells; cytotoxicity [5]: specific cytotoxicity; ROS levels (DHE) [6]: increased levels of ROS; growth of GFP-positive tumor organoids [7]: notable growth inhibition
4 | N.N.O=C([O-])C1(C(=O)[O-])CCC1.[Pt+2] [carboplatin] | enhances | 
5 | N.N.[Cl][Pt][Cl] [cisplatin] | enhances | 
6 | Cc1c2oc3c(C)ccc(C(=O)N[C@@H]4C(=O)N[C@H](C(C)C)C(=O)N5CCC[C@H]5C(=O)N(C)CC(=O)N(C)[C@@H](C(C)C)C(=O)O[C@@H]4C)c3nc-2c(C(=O)N[C@@H]2C(=O)N[C@H](C(C)C)C(=O)N3CCC[C@H]3C(=O)N(C)CC(=O)N(C)[C@@H](C(C)C)C(=O)O[C@@H]2C)c(N)c1=O [dactinomycin] (I: T[dV]P[Sar][NMeV] / II: T[dV]P[Sar][NMeV]; ester I:1-I:C, II:1-II:C; linker I:N-II:N via Actinocin(9to1)) | enhances | 
7 | COc1cccc2c1C(=O)c1c(O)c3c(c(O)c1C2=O)C[C@@](O)(C(=O)CO)C[C@@H]3O[C@H]1C[C@H](N)[C@H](O)[C@H](C)O1 [doxorubicin] | enhances | 
8 | COc1cccc2c1C(=O)c1c(O)c3c(c(O)c1C2=O)C[C@@](O)(C(=O)CO)C[C@@H]3O[C@H]1C[C@H](N)[C@@H](O)[C@H](C)O1 [epirubicin] | enhances | 
9 | COC(=O)C[C@](O)(CCCC(C)(C)O)C(=O)O[C@@H]1C(OC)=C[C@]23CCCN2CCc2cc4c(cc2[C@H]13)OCO4 [homoharringtonin] | enhances | 
10 | O=NN(CCCl)C(=O)NC1CCCCC1 [lomustine] | enhances | 
11 | CC(C)[C@]12O[C@H]1[C@@H]1O[C@]13[C@]1(O[C@H]1C[C@H]1C4=C(CC[C@@]13C)C(=O)OC4)[C@@H]2O [triptolide] | enhances | 
12 | vinorebine | enhances | 
